These results are taken from PMC13376213, “Systematic discovery of motif-based interactions of the auxiliary domains of USP family deubiquitinases” (Nature Communications, 2026).

In one experiment the target is T1, USP33 DUSP2 N835A (Homo sapiens, UniProt Q8TEY7, N835A).
T1 construct: USP33_DUSP2; Q8TEY7; DUSP2; 806; 921; 6xHis-GST (N, cleaved yes); made in house; host or cells: Escherichia coli BL21-Gold (DE3)
T1 sequence (Q8TEY7 806-921 N835A): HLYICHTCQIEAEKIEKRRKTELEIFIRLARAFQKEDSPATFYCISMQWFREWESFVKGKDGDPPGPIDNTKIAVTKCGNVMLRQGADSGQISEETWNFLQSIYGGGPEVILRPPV
The experiment can be described thus: FP-monitored affinity measurements, USP33 DUSP2 single mutant. Type of experiment: binding. As to the method: (§1) Proteins were expressed in Escherichia coli (E.coli) BL21-Gold (DE3) bacteria. The cDNAs encoding N-terminal 6-histidine-glutathione S-transferase tagged (6xHis-GST), 6xHis-tagged or GST-tagged protein domains in pETM33, pETM11, pGEX6P1 expression vectors respectively, were obtained from Genescript or kindly provided by MRC-PPU (Suppl. Data 1) The bacteria were transformed with the plasmid and grew at 37 °C in 2YT (5 g/L NaCl, 16 g/L tryptone and 10 g/L yeast extract) supplemented with Kanamycin (30 μg/mL) until reaching an OD600 of 0.7. Protein expression was induced with 0.3 mM isopropyl β-D-1 thiogalactopyranoside (IPTG) for 18 h at 18 °C while shaking. For zinc-finger domains, 50 μM of ZnSO4 was added during expression. […] For fluorescence polarization experiments, the proteins were not eluted from the beads, and the 6xHis-GST tag was cleaved overnight on GSH Sepharose beads at 4 °C while shaking with PreScission Protease in cleavage buffer (50 mM Tris pH 7.5, 150 mM NaCl, 1 mM DTT). […] The purity and size of the proteins were analyzed by SDS-PAGE electrophoresis.
(§2) The measurements were performed at room temperature in a non-binding black half area 96-well plate (Corning) with a total volume of 50 μL per well. […] The data were analyzed using GraphPad Prism version 9.2.0 for MacOS (GraphPad Software, San Diego, California USA, www.graphpad.com). […]

The next experiment addresses T2, USP33 DUSP2 K863E-K865E (Homo sapiens, UniProt Q8TEY7, K863E/K865E).
T2 construct: USP33_DUSP2; Q8TEY7; DUSP2; 806; 921; 6xHis-GST (N, cleaved yes); made in house; host or cells: Escherichia coli BL21-Gold (DE3)
T2 sequence (Q8TEY7 806-921 K863E/K865E): T1 sequence (Q8TEY7 806-921 N835A) with A30N, K58E, K60E
Briefly: FP-monitored affinity measurements, USP33 DUSP2 double mutant. In kind it is binding. The protocol: as §1, §2

A further experiment concerns the target T3, USP33 DUSP2 domain (Homo sapiens, UniProt Q8TEY7).
T3 construct: USP33_DUSP2; Q8TEY7; DUSP2; 806; 921; 6xHis-GST (N, cleaved yes); made in house; host or cells: Escherichia coli BL21-Gold (DE3)
T3 sequence (Q8TEY7 with tags, fused parts or gaps): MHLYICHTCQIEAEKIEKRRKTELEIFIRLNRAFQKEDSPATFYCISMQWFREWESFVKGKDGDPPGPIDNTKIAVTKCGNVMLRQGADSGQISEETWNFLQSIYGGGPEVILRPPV
The experiment can be described thus: FP-monitored affinity measurements, USP33 DUSP2. In kind it is binding. To be noted: USP33_DUSP2; direct FP titration (saturation) of the FITC-labelled peptide; read-out: KD. The protocol: (§3) Proteins were expressed in Escherichia coli (E.coli) BL21-Gold (DE3) bacteria. The cDNAs encoding N-terminal 6-histidine-glutathione S-transferase tagged (6xHis-GST), 6xHis-tagged or GST-tagged protein domains in pETM33, pETM11, pGEX6P1 expression vectors respectively, were obtained from Genescript or kindly provided by MRC-PPU (Suppl. Data 1) The bacteria were transformed with the plasmid and grew at 37 °C in 2YT (5 g/L NaCl, 16 g/L tryptone and 10 g/L yeast extract) supplemented with Kanamycin (30 μg/mL) until reaching an OD600 of 0.7. Protein expression was induced with 0.3 mM isopropyl β-D-1 thiogalactopyranoside (IPTG) for 18 h at 18 °C while shaking. For zinc-finger domains, 50 μM of ZnSO4 was added during expression. The bacterial cultures were pelleted for 15 minutes at 4000 x g at 4 °C and stored at −20 °C until purification. The pellets were resuspended in lysis buffer (1× phosphate-buffered saline (PBS), 0.5 % Triton-X, 5 mM MgCl2, 10 μg/mL lysozyme, cOmplete^TM EDTA-free protease inhibitor cocktail (Roche), 10 μg/mL DNAseI) and incubated for 1 h shaking at 4 °C. […] The supernatant was incubated with glutathione (GSH) Sepharose (Cytiva) or Ni2+ Sepharose (Cytiva) for 1 h at 4 °C while shaking. The beads with the bound protein were washed with 1x PBS and eluted with 10 mM reduced glutathione in 50 mM Tris pH 8.0. For fluorescence polarization experiments, the proteins were not eluted from the beads, and the 6xHis-GST tag was cleaved overnight on GSH Sepharose beads at 4 °C while shaking with PreScission Protease in cleavage buffer (50 mM Tris pH 7.5, 150 mM NaCl, 1 mM DTT). The sample containing the cleaved domain was separated from the tag and protease and buffer-exchanged to 50 mM sodium phosphate buffer pH 7.4 with 1 mM DTT using a PD-10 desalting column (Cytiva). The purity and size of the proteins were analyzed by SDS-PAGE electrophoresis.
(§4) The measurements were performed at room temperature in a non-binding black half area 96-well plate (Corning) with a total volume of 50 μL per well. Peptides were obtained from GeneCust (France) with >95% purity. FITC-labeled peptides (N-terminally FITC-labeled without spacer and C-terminally amidated) were dissolved in dimethyl sulfoxide (DMSO), and unlabeled peptides (N-terminally acetylated and C-terminally amidated) were dissolved in 50 mM phosphate buffer pH 7.4. Saturation measurements were performed using a serial dilution of the protein domains in phosphate buffer (25 μL) and the addition of 10 nM FITC-labeled peptide (in phosphate buffer supplemented with 2 mM DTT) (25 μL). […] All measurements were performed in three technical replicates. The data were analyzed using GraphPad Prism version 9.2.0 for MacOS (GraphPad Software, San Diego, California USA, www.graphpad.com). The saturation curves were fitted to the quadratic equation, and the displacement curves were fitted to a sigmoidal dose-response equation as described previously.

The next experiment addresses T4, USP20 DUSP2 domain (Homo sapiens, UniProt Q9Y2K6).
T4 construct: USP20_DUSP2; Q9Y2K6; DUSP2; 776; 894; 6xHis-GST (N, cleaved yes); made in house; host or cells: Escherichia coli BL21-Gold (DE3)
The experiment can be described thus: FP-monitored affinity measurements, USP20 DUSP2. In kind it is binding. The conditions noted are these: USP20_DUSP2; direct FP titration (saturation) of the FITC-labelled peptide; read-out: KD. The protocol: as §3, §4

The next experiment concerns the target T5, USP20 DUSP2 K833E-K835E (Homo sapiens, UniProt Q9Y2K6, K833E/K835E).
T5 construct: USP20_DUSP2; Q9Y2K6; DUSP2; 776; 894; 6xHis-GST (N, cleaved yes); made in house; host or cells: Escherichia coli BL21-Gold (DE3)
The experiment can be described thus: FP-monitored affinity measurements, USP20 DUSP2 double mutant. Type of experiment: binding. As to the method: as §1, §2

For a further experiment, the target named is T6, USP20 DUSP2 N805A (Homo sapiens, UniProt Q9Y2K6, N805A).
T6 construct: USP20_DUSP2; Q9Y2K6; DUSP2; 776; 894; 6xHis-GST (N, cleaved yes); made in house; host or cells: Escherichia coli BL21-Gold (DE3)
T6 sequence (Q9Y2K6 with tags, fused parts or gaps N805A): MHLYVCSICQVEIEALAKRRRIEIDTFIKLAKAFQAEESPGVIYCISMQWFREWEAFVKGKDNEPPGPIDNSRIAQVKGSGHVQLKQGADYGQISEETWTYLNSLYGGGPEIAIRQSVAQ
Briefly: FP-monitored affinity measurements, USP20 DUSP2 single mutant. Type of experiment: binding. As to the method:
as §1, §2

The next experiment relates to FLAG-USP20. The experiment can be described thus: IP-MS of FLAG-USP20 and variants vs empty vector. In kind it is cell-based, human. The conditions noted are these: IP-MS, FLAG-USP20-ΔUBP vs EV; comparison bh_2 Sample_Limma_ImpMedInt_USP20_UBP_domain/EV.
The next experiment deals with T7, USP11 DUSP-UBL domain (Homo sapiens, UniProt P51784).
T7 construct: USP11_UBL; P51784; UBL; 6xHis-GST (N, cleaved yes); made in house; host or cells: Escherichia coli BL21-Gold (DE3)
T7 sequence (P51784 67-288): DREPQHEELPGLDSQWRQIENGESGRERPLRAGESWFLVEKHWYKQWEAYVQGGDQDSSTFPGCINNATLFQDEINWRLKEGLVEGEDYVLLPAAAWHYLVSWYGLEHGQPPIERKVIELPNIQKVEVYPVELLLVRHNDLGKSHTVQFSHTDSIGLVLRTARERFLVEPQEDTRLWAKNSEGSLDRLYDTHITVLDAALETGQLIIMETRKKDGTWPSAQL
Briefly: FP-based affinity measurements, USP11 DUSP-UBL. Type of experiment: binding. The conditions noted are these: FP saturation, FITC-labeled peptide; technical triplicates; read-out: KD, USP11 DUSP-UBL, labeled peptide (direct binding). As to the method:
as §3
as §4, with “The saturation curves were fitted to the quadratic equation, and the displacement curves were fitted to a sigmoidal dose-response equation as described previously.” left out

Positions count from the first letter of the chain named. Read-outs that look alike come from different tables or passages of the source. Peptide text beside a SMILES is read from it. * marks the point of attachment. FITC = O=C1OC2(c3ccc(O)cc3Oc3cc(O)ccc32)c2ccc(NC(=S)*)cc21

T5 sequence (Q9Y2K6 with tags, fused parts or gaps K833E/K835E): as the sequence (Q9Y2K6 with tags, fused parts or gaps N805A) above, with A31N, K59E, K61E counted along it
T4 sequence (Q9Y2K6 with tags, fused parts or gaps): as the sequence (Q9Y2K6 with tags, fused parts or gaps N805A) above, with A31N counted along it
Procedure for FLAG-USP20: For transfection, 1x10^6 HEK293 cells were seeded in 10 cm dishes with DMEM, 10% FBS, 1% L-G (without antibiotic) medium, incubated at 37 °C, with 5 % CO2 for 24 h. Cells were transfected with a transfection mix containing 970 mL of Opti-MEM (Thermo Fisher Scientific), 20 μL of PEI stock (1 mg/mL) and 5 mg of the desired cDNA. For co-transfection, 2.5 μg of DNA of each plasmid was used. The mix was vortexed for 15 s and incubated at room temperature for 15–20 min. The transfection mix was added to the dish and gently mixed. Plates were incubated at 37 °C for 36–48 h before harvesting. For USP33 constructs, 5 μM Bortezomib (proteasome inhibitor) was added 4 hours before harvesting the cells.
FLAG fusion proteins were immunoprecipitated from HEK293 cells transfected with plasmids encoding the protein of interest using the anti-FLAG M2 affinity gel from Sigma-Aldrich. […] The cell lysate was clarified by centrifugation at 17,000 x g, at 4 °C for 12 min, and the supernatant was transferred to a clean, pre-chilled low-binding Eppendorf tube. […] The IP samples were centrifuged at 6500 x g at 4 °C for 30 s. The supernatant containing the unbound proteins was transferred to a clean tube. The resin was washed three times with 500 μL of TBS, centrifuged at 6500 x g at 4 °C for 30 s. The bound FLAG fusion protein was eluted with 100 μL of 150 ng/μL 3X FLAG peptide (Sigma) in TBS and incubated in the cold room for 1 h or overnight. The tube was centrifuged at 6500 x g at 4 °C for 30 s; the eluted proteins were transferred to a clean tube. The eluted proteins were prepared for analysis by western blot or Mass Spectrometry.
Immunoprecipitation (IP) was carried out as described above; four technical replicates of each IP condition were performed, and the empty vector was used as a negative control. The eluted protein was processed following the Strap-micro protocol (Protifi). The IP elution containing 1–100 μg protein was 1:1 mixed with 2X lysis buffer (10% SDS, 100 mM TEAB pH 8.5). […] Samples were vortexed, mixed with 165 μL of 100 mM TEAB in 90% methanol, and passed through an S-Trap micro column at 4000 g for 30 s to trap the proteins. The column was washed with 150 μL of 100 mM TEAB in 90% methanol (at 4,000 x g for 30 seconds) three times. The S-Trap column was centrifuged again and transferred to a clean 2 mL tube for digestion with 20 μL of digestion buffer (1 μg trypsin per 10 μg sample in 50 mM TEAB), at 37 °C overnight in a thermomixer without shaking. The digested peptides were eluted with 40 mL of 50 mM TEAB in water, 40 mL of 0.2 % formic acid in water, and 40 mL of 50 % acetonitrile in water, centrifuging at 4000 x g for 1 min each time. The three elutions were pooled in a low-binding tube, placed on dry ice until frozen, dried in a SpeedVac vacuum (Thermo Scientific), and proceeded with the LCMS analysis.
Eluted peptides were analyzed using data-independent acquisition mode on the mass spectrometer.
Peptides were searched against the Uniprot Swissprot Human database (released on 02/01/2023) supplemented with the USP20 and USP33 mutants using DiaNN (v1.9.0)[62] operating in library-free mode. Data filtering and statistical analysis were carried out in Python (v3.9.0) using the packages pandas, numpy, sklearn, scipy, rpy2, Plotnine, and Plotly and R (v4.4.3) using the package limma.
Protein groups identified with a single peptide or quantified in fewer than three replicates in at least 1 condition were filtered out. Protein group intensities were median normalized and missing values were imputed using a Gaussian distribution centered on the median with a downshift of 1.8 and width of 0.3 (relative to the standard deviation).

As to `CSCC[C@H](NC(=S)Nc1ccc2c(c1)C(=O)OC21c2ccc(O)cc2Oc2cc(O)ccc21)C(=O)N[C@@H](CC(=O)O)C(=O)N[C@@H](CC(=O)O)C(=O)N[C@@H](CC(=O)O)C(=O)N[C@@H](Cc1ccccc1)C(=O)N[C@@H](CCC(N)=O)C(=O)N[C@@H](CC(C)C)C(=O)N[C@@H](CCCNC(=N)N)C(=O)N[C@@H](CO)C(=O)N[C@@H](Cc1ccccc1)C(=O)N[C@@H](CC(=O)O)C(=O)N[C@@H](CCC(N)=O)C(=O)N[C@@H](CC(C)C)C(=O)N[C@@H](CO)C(N)=O` [FITC-HIF1A568-581] ({FITC}-MDDDFQLRSFDQLS-NH2), the Kd (as a rule, the equilibrium constant for the complex coming apart) on USP33 DUSP2 N835A (FP, FITC-labeled probe peptide, single mutant domain (Fig. 5F), technical triplicate, read-out: KD, USP33 DUSP2 N835A with FITC-labeled probe peptide) was greater than 300 µM; at USP33 DUSP2 K863E-K865E (FP, FITC-labeled probe peptide, double mutant domain (Fig. 5F), technical triplicate, read-out: KD, USP33 DUSP2 K863E-K865E with FITC-labeled probe peptide), greater than 300 µM.
For `CSCC[C@H](NC(=S)Nc1ccc2c(c1)C(=O)OC21c2ccc(O)cc2Oc2cc(O)ccc21)C(=O)N[C@@H](CC(=O)O)C(=O)N[C@@H](CC(=O)O)C(=O)N[C@@H](CC(=O)O)C(=O)N[C@@H](Cc1ccccc1)C(=O)N[C@@H](CCC(N)=O)C(=O)N[C@@H](CC(C)C)C(=O)N[C@@H](CCCNC(=N)N)C(=O)N[C@@H](CO)C(=O)N[C@@H](Cc1ccccc1)C(=O)N[C@@H](CC(=O)O)C(=O)N[C@@H](CCC(N)=O)C(=O)N[C@@H](CC(C)C)C(=O)N[C@@H](CO)C(N)=O` [FITC_HIF1A] ({FITC}-MDDDFQLRSFDQLS-NH2), the dissociation constant Kd at USP33 DUSP2 N835A (USP33_DUSP2_N835A, direct FP titration (saturation) of the FITC-labelled peptide, read-out: KD) is roughly 353 µM; on USP33 DUSP2 K863E-K865E (USP33_DUSP2_K863E/K865E, direct FP titration (saturation) of the FITC-labelled peptide, read-out: KD), roughly 319 µM; at USP33 DUSP2 domain, 31.3 µM.
Turning to `CC[C@H](C)[C@H](NC(=O)[C@H](CC(N)=O)NC(=O)[C@H](Cc1c[nH]c2ccccc12)NC(=O)[C@H](C)NC(=O)[C@H](CC(C)C)NC(=O)[C@H](CC(=O)O)NC(=O)[C@H](CC(=O)O)NC(=O)[C@H](CC(=O)O)NC(=O)[C@H](CO)NC(=S)Nc1ccc2c(c1)C(=O)OC21c2ccc(O)cc2Oc2cc(O)ccc21)C(=O)N[C@@H](C)C(=O)N1CCC[C@H]1C(=O)N[C@@H](CCC(N)=O)C(=O)NCC(=O)N[C@@H](CC(C)C)C(=O)N[C@@H](CCC(N)=O)C(N)=O` [FITC_GPR137B] ({FITC}-SDDDLAWNIAPQGLQ-NH2), the Kd at USP20 DUSP2 domain is 5.14 µM; on USP20 DUSP2 K833E-K835E (USP20_DUSP2_K833E/K835E, direct FP titration (saturation) of the FITC-labelled peptide, read-out: KD), roughly 293 µM; on USP20 DUSP2 N805A (USP20_DUSP2_N805A, direct FP titration (saturation) of the FITC-labelled peptide, read-out: KD) it was roughly 140 µM.
In the experiment on FLAG-USP20, TMEM131L gave a log2_FC of 4.636.
Regarding `CC[C@H](C)[C@H](NC(=O)[C@H](Cc1c[nH]c2ccccc12)NC(=O)[C@H](CC(=O)O)NC(=O)[C@@H]1CCCN1C(=O)[C@H](Cc1ccc(O)cc1)NC(=O)[C@@H](NC(=O)[C@@H](NC(=O)[C@H](C)NC(=O)[C@H](CO)NC(=S)Nc1ccc2c(c1)C(=O)OC21c2ccc(O)cc2Oc2cc(O)ccc21)C(C)C)[C@@H](C)O)C(=O)NCC(=O)N[C@@H](CCC(N)=O)C(=O)N[C@@H](CO)C(=O)N[C@@H](Cc1ccc(O)cc1)C(=O)N[C@@H](CO)C(=O)N[C@@H](CCC(=O)O)C(=O)N[C@H](C(N)=O)C(C)C` [FITC-ORA1] ({FITC}-SAVTYPDWIGQSYSEV-NH2), the Kd at USP11 DUSP-UBL domain was greater than 290 µM.
In the case of `CC[C@H](C)[C@H](NC(=O)[C@H](CC(N)=O)NC(=O)[C@H](Cc1c[nH]c2ccccc12)NC(=O)[C@H](C)NC(=O)[C@H](CC(C)C)NC(=O)[C@H](CC(=O)O)NC(=O)[C@H](CC(=O)O)NC(=O)[C@H](CC(=O)O)NC(=O)[C@H](CO)NC(=S)Nc1ccc2c(c1)C(=O)OC21c2ccc(O)cc2Oc2cc(O)ccc21)C(=O)N[C@@H](C)C(=O)N1CCC[C@H]1C(=O)N[C@@H](CCC(N)=O)C(=O)NCC(=O)N[C@@H](CC(C)C)C(=O)N[C@@H](CCC(N)=O)C(N)=O` [FITC-GPR137B348-362] ({FITC}-SDDDLAWNIAPQGLQ-NH2), the Kd on USP20 DUSP2 K833E-K835E (FP, FITC-labeled probe peptide, double mutant domain (Fig. 5F), technical triplicate, read-out: KD, USP20 DUSP2 K833E-K835E with FITC-labeled probe peptide) was greater than 290 µM; on USP20 DUSP2 N805A (FP, FITC-labeled probe peptide, single mutant domain (Fig. 5F), technical triplicate, read-out: KD, USP20 DUSP2 N805A with FITC-labeled probe peptide), greater than 130 µM.
